The source of these data is US6133039A, “In vivo method for determination of oxidative stress” (Washinton University, priority 2000, dated 2000).

The conditions of data set [1]: 3-nitrotyrosine given to animals; Tabrizi-Fard et al.; cited from earlier work.
Data set [2] is described as follows: Metabolic fate of radiolabeled dityrosine injected intravenously into mice (blood, tissue and urine radioactivity). Format: in vivo. The procedure:
Mice were injected with 2×10^5 cpm of [^14 C]dityrosine. FIG. 3A: Blood was collected at the indicated times by retro-orbital bleeding. FIG. 3B: Animals were sacrificed at the indicated times after injection of [^14 C]dityrosine. Recovery of radiolabeled material in tissues and urine was quantified by scintillation spectroscopy.
(§1) o,o'-[^14 C]Dityrosine (2×10^5 cpm) was injected into the animals intravenously. Plasma was centrifuged (400×g for 20 min at 4° C.) from blood collected by retro-orbital bleeding. Tissue samples were collected from animals killed by cervical dislocation, weighed and then homogenized in deionized water. Radioactivity in tissue homogenates, plasma, and urine was determined by liquid scintillation spectroscopy (Beckman LS 3801) with correction for quenching. [^14 C]Dityrosine was prepared from L-[^14 C]tyrosine (American Radiolabeled Chemicals Co.; St. Louis, Mo.) and o,o'-[^13 C12 ]dityrosine was prepared from L-[^13 C6 ]tyrosine (Cambridge Isotope Inc.; Andover, Mass.) using horseradish peroxidase (Boehringer Mannheim Biochemicals; Indianapolis, Ind.) and H2 O2 (Fisher Scientific Co.; Pittsburgh, Pa.) and isolated by reverse-phase HPLC; (27). o,o'-[^14 C]Dityrosine and radiolabeled material in urine were analyzed by HPLC (27) using a reverse-phase column (ODS ultrasphere, 250 mm×4.6 mm, particle size 5 μm.; Beckman,) and a flow rate of 1 ml/min. The column was equilibrated with 100% solvent A (1% acetic acid in water). Compounds were eluted with a discontinuous gradient of solvent B (1% acetic acid in methanol). The gradient was 0%-10% solvent B over 10 min, 10% solvent B for 4 min, 10%-100% solvent B over 5 min and 100% solvent B for 10 min. Prior to HPLC analysis, urinary amino acids were isolated by solid-phase extraction as outlined above. Recovery of radiolabeled material from urine subjected to this procedure was>90%. Radioactivity in each HPLC fraction was quantified by liquid scintillation spectroscopy.

A short description of data set [3]: Reverse-phase HPLC analysis of urine of animals injected intravenously with o,o'-[^14 C]dityrosine. The class given is in vivo, mice. The settings on record: urine after intravenous injection. The procedure: Urine collected from animals injected with [^14 C]dityrosine was subjected to reverse-phase HPLC analysis with monitoring of radioactivity by scintillation spectroscopy.
as §1, with “Compounds were eluted with a discontinuous gradient of solvent B (1% acetic acid in methanol). The gradient was 0%-10% solvent B over 10 min, 10% solvent B for 4 min, 10%-100% solvent B over 5 min and 100% solvent B for 10 min. Prior to HPLC analysis, urinary amino acids were isolated by solid-phase extraction as outlined above. Recovery of radiolabeled material from urine subjected to this procedure was>90%.” left out

The subject of data set [4] is peritoneal phagocytes of wild-type mice. Description: Protein-bound o,o'-dityrosine in peritoneal leukocytes activated in vivo with zymosan, isotope dilution GC/MS. On the set-up: species or system mice (C57BL/6J). The procedure: (§2) Thioglycolate-elicited peritoneal inflammatory cells were activated in vivo with zymosan. FIG. 2A: At the indicated time (n=3 animals) or FIG. 2B: 3 h after injection of zymosan, protein-bound o,o'-dityrosine in cellular proteins was quantified by isotope dilution GC/MS.
(§3) The animal studies committee of Washington University School of Medicine in St. Louis approved all protocols. The C57BL/6J mice used for these experiments were obtained from Jackson Laboratories (Bar Harbor, […].) and bred and maintained under pathogen-free conditions. Impaired O2^.cndot.- by phorbol ester-stimulated neutrophils isolated from CGD mice deficient in gp91 phox (13) was confirmed by monitoring the superoxide dimutase inhibitable reduction of ferricytochrome c (10). Mice were fed rodent diet 5001 (Harlan-Teklad, Madison, Wis.). Between ages 9 and 11 weeks, the mice were injected with one ml of 4% thioglycollate to recruit leukocytes into the peritoneum. The leukocytes were activated 20 hours (h) later by intraperitoneal injection of zymosan (250 mg/kg). Control animals were injected with one ml of buffer A (138 mM NaCl, 3 mM KCl, 0.1 M sodium phosphate, pH 7.4). Prior to and every 2 h during urine collection, the animals were injected intraperitoneally with 2 ml of buffer A.
Animals were killed by decapitation after metophane-induced anesthesia. After the abdominal wall was washed with 95% ethanol, leukocytes were harvested from the peritoneum using a siliconized glass pipette. The peritoneum was lavaged 3 times with 4 ml of ice-cold Hanks' Balanced Salt Solution (HBSS) containing 100 μM DTPA. Cells were suspended in ice-cold HBSS, collected by low speed centrifugation, and stored at -80° C. until analysis. […]
(§4) Amino acids were converted to their n-propyl esters, heptafluorobutyryl derivatives and quantified by isotope dilution gas chromatography/mass spectrometry (GC/MS) with selected ion monitoring (20,21). […] The ions monitored were: L-tyrosine, m/z 417 and 595; L-[^13 C6 ]tyrosine, m/z 423 and 601; o,o'-dityrosine, m/z 1030 and 1208; o,o'-[^13 C12 ]dityrosine, m/z 1042 and 1220.

The subject of data set [5] is peritoneal phagocytes. Description: Recruitment of peritoneal cells by thioglycollate. The class given is in vivo, mice.
Source text: as §3
Animals were killed by decapitation after metophane-induced anesthesia. After the abdominal wall was washed with 95% ethanol, leukocytes were harvested from the peritoneum using a siliconized glass pipette. The peritoneum was lavaged 3 times with 4 ml of ice-cold Hanks' Balanced Salt Solution (HBSS) containing 100 μM DTPA. Cells were suspended in ice-cold HBSS, collected by low speed centrifugation, and stored at -80° C. until analysis.
To determine whether white blood cells oxidatively damage proteins in vivo, isotope dilution GC/MS was used to quantify levels of o,o'-dityrosine in mouse peritoneal phagocytes. To recruit neutrophils into the peritoneum, the animals were injected with thioglycollate, a chemical irritant. Twenty hours after this first injection, the animals were given an intraperitoneal injection of zymosan, which stimulates phagocytes to produce H2 O2 and secrete myeloperoxidase into the phagolysosome (6). Thioglycollate-injected mice typically yielded 20-40×10^6 peritoneal cells. Neutrophils, mononuclear cells, and eosinophils represented 67±4%, 30±4%, and<1% of the harvested phagocytes (n=6 animals).

For data set [6], the system named is peritoneal phagocytes of CGD mice. Description: Protein-bound o,o'-dityrosine in peritoneal phagocytes, isotope dilution GC/MS, CGD mice. Format: in vivo. Particulars: 3 hours of zymosan stimulation, mice deficient in NADPH oxidase. Here is the method: as §2
as §3, with “The leukocytes were activated 20 hours (h) later by intraperitoneal injection of zymosan (250 mg/kg). Control animals were injected with one ml of buffer A (138 mM NaCl, 3 mM KCl, 0.1 M sodium phosphate, pH 7.4). Prior to and every 2 h during urine collection, the animals were injected intraperitoneally with 2 ml of buffer A.” left out
as §4

As for `N[C@@H](Cc1ccc(O)c([N+](=O)[O-])c1)C(=O)O` [3-nitrotyrosine], in data set [1], the “amount excreted into urine” value was “Minimal amounts”.

With `N[C@@H](Cc1ccc(O)c(-c2cc(C[C@H](N)C(=O)O)ccc2O)c1)C(=O)O` [o,o'-[^14 C]dityrosine], the “radiolabeled material lost from the blood” value in data set [2] (5 min after intravenous injection) is recorded as “more than 50%”. Also, in data set [2] (1 h after intravenous injection), the “radioactivity recovered in the urine” value is “Thirty”. Also, the “radioactivity recovered in the urine” value in data set [2] (3 h after intravenous injection) was 65%. Further, the “radioactivity recovered in the urine” value in data set [2] (4 h after intravenous injection) worked out at 81%. In addition, in data set [2] (after intravenous injection), the “radiolabeled material in blood, liver, spleen, and heart” value is listed as “essentially undetectable”; the “radiolabeled material present in kidney” value is recorded as less than 5%. Also, in data set [2] (intravenous), the “apparent half-life in the blood (slower phase)” value is ~ 30 min and the “clearance kinetics from the blood” value is “biphasic kinetics”. Besides, the “radioactivity in urine co-migrating with authentic o,o'-[^14 C]dityrosine” value in data set [3] is “More than 80%”.

In the case of `NC(Cc1ccc(O)c(-c2cc(CC(N)C(=O)O)ccc2O)c1)C(=O)O` (centres unmarked) [o,o'-dityrosine], in data set [4] (before zymosan), the “o,o'-dityrosine content of resident thioglycollate-elicited neutrophils” value was ~ 50 μmol per mol tyrosine. In data set [2] (between 3 h and 4 h after intravenous injection), the “recovery of radioactive material in the urine (in words)” value was “recovered almost quantitatively”.

thioglycollate: in data set [5] (n=6 animals), the “eosinophils among harvested phagocytes” value is given as less than 1%, the “mononuclear cells among harvested phagocytes” value was found to be 30±4% and the “neutrophils among harvested phagocytes” value was 67±4%. Besides, the peritoneal cells yielded in data set [5] (thioglycollate-injected mice) is recorded as 20-40 ×10^6 peritoneal cells.

Consider zymosan, for which the “time of peak of protein-bound o,o'-dityrosine” value in data set [4] (after zymosan injection) was 3 h. Besides, the “increase of o,o'-dityrosine in cellular proteins” value in data set [4] (neutrophils exposed to zymosan in vivo) is listed as 4 fold. Moreover, in data set [6], the “o,o'-dityrosine in phagocyte proteins” value is “undetectable”. Besides, in data set [6] (p<0.0005), the “increase in protein-bound dityrosine” value was “completely abrogated”.
